The text below walks through data of ChEMBL document CHEMBL3217574, “Discovery of CP-866,087, a mu opioid receptor antagonist for the treatment of alcohol abuse and dependence” (Medchemcomm, 2011).

For data set [1], the target named is Delta-type opioid receptor (Homo sapiens, UniProt P41143). Put plainly: Displacement of [3H]diprenorphine from human delta opioid receptor expressed in cells after 1 hr by liquid scintillation counting analysis. In kind it is cell-based. (In general: In a radioligand displacement assay an active substance lowers the binding of a labelled ligand.)
Delta-type opioid receptor, sequence (P41143 whole entry): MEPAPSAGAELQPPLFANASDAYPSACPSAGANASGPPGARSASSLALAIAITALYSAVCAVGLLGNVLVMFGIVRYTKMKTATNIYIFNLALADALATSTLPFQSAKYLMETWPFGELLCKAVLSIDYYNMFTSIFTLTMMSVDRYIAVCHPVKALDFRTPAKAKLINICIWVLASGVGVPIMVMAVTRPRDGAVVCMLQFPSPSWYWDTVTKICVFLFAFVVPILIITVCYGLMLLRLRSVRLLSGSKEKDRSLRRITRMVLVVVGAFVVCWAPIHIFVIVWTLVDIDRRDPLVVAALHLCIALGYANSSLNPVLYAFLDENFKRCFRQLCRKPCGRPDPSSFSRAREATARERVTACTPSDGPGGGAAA
Data set [2] in a line: Intrinsic clearance in human liver microsomes. The class given is ADME. The conditions noted are these: read-out: CLH.
A short description of data set [3]: Ratio of drug level in rat brain to plasma at 1 mg/kg, sc at 0.75 hrs time-point. In kind it is ADME, organism-based. Also on record: dose 1 mg/kg, route subcutaneous. The conditions noted are these: read-out: BPR.
The subject of data set [4] is Rattus norvegicus. Put plainly: Reduction in alcohol intake in sc dosed alcohol-preferring rat after 30 mins. The class given is functional, organism-based.
The subject of data set [5] is Rattus norvegicus. The data set is described as follows: Reduction in alcohol intake in alcohol-preferring rat at 5.6 mg/kg, sc after 30 mins. The class given is functional. The conditions noted are these: 0.5 h, route subcutaneous.
Data set [6] addresses T1, Mu-type opioid receptor (Homo sapiens, UniProt P35372). Put plainly: Antagonist activity at human mu opioid receptor expressed in CHO cells assessed as [35S]-GTPgammaS binding after 1 hr by liquid scintillation counting analysis. In kind it is functional, cell-based. A general note: Binding of GTPγS marks nucleotide exchange on a G protein.
For data set [7], the target named is T1, Mu-type opioid receptor. Put plainly: Displacement of [3H]diprenorphine from human mu opioid receptor expressed in cells after 1 hr by liquid scintillation counting analysis. The class given is cell-based.
The target of data set [8] is Kappa-type opioid receptor (Homo sapiens, UniProt P41145). The data set is described as follows: Displacement of [3H]diprenorphine from human kappa opioid receptor expressed in cells after 1 hr by liquid scintillation counting analysis. The class given is cell-based.
Kappa-type opioid receptor, sequence (P41145 whole entry): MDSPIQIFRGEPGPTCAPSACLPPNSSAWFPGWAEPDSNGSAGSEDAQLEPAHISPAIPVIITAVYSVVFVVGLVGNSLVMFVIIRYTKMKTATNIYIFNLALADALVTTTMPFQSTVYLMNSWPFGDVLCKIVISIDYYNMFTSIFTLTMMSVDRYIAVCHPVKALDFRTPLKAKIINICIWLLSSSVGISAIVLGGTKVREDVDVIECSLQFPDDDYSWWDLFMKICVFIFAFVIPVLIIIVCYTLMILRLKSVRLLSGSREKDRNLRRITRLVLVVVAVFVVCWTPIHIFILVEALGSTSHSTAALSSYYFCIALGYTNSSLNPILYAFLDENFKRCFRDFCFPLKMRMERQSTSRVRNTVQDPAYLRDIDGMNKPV
Data set [9] is described as follows: Clearance in rat. The class given is ADME, organism-based. Particulars: in vivo.
Data set [10] concerns Rattus norvegicus. Put plainly: Reduction in alcohol intake in alcohol-preferring rat at 1 mg/kg, sc after 30 mins. In kind it is functional. The conditions noted are these: 0.5 h, route subcutaneous.
Data set [11] can be described thus: Volume of distribution in rat. The class given is ADME, organism-based. The conditions noted are these: in vivo.
Data set [12] can be described thus: Half life in rat. The class given is ADME, organism-based. The conditions noted are these: in vivo.
Data set [13] can be described thus: Drug level in rat cerebrospinal fluid at 1 mg/kg, sc at 0.75 hrs time-point. The class given is ADME, organism-based. Set-up: dose 1 mg/kg, route subcutaneous. The conditions noted are these: read-out: Drug uptake.
Data set [14] is described as follows: Fraction unbound in rat at 1 mg/kg, sc at 0.75 hrs time-point. The class given is ADME, organism-based. Also on record: dose 1 mg/kg, route subcutaneous. Particulars: plasma.
Data set [15] is described as follows: Total plasma concentration in rat at 1 mg/kg, sc at 0.75 hrs time-point. The class given is ADME, organism-based. Also on record: dose 1 mg/kg, route subcutaneous.
A further data set concerns the target CYP2D6 (Homo sapiens, UniProt P10635). The data set is described as follows: Inhibition of CYP2D6 (unknown origin) at 3 uM after 8 mins. In kind it is ADME.
Data set [16] concerns Rattus norvegicus. The data set is described as follows: Antagonist activity against morphine-induced antinociception in sc dosed rat assessed as reversal of latency increase. The class given is functional.
The species named for data set [17] is Homo sapiens. The data set is described as follows: Ratio of Ki for human mu opioid receptor to Ki for human delta opioid receptor.
For a further data set, the system named is human MDR1 (P-gp). Put plainly: Efflux ratio of apparent permeability from basolateral to apical side over apical to basolateral side in MDCK cells transfected with human MDR1. In kind it is ADME, cell-based, Canis lupus familiaris. Particulars: dog.
For data set [18], the species on record is Homo sapiens. The data set is described as follows: Ratio of ki for human mu opioid receptor to human kappa opioid receptor.
In data set [19] the target is Voltage-gated inwardly rectifying potassium channel KCNH2 (Homo sapiens, UniProt Q12809). Put plainly: Inhibition of human ERG by [3H]dofetilide binding assay.
Voltage-gated inwardly rectifying potassium channel KCNH2, sequence (Q12809 whole entry): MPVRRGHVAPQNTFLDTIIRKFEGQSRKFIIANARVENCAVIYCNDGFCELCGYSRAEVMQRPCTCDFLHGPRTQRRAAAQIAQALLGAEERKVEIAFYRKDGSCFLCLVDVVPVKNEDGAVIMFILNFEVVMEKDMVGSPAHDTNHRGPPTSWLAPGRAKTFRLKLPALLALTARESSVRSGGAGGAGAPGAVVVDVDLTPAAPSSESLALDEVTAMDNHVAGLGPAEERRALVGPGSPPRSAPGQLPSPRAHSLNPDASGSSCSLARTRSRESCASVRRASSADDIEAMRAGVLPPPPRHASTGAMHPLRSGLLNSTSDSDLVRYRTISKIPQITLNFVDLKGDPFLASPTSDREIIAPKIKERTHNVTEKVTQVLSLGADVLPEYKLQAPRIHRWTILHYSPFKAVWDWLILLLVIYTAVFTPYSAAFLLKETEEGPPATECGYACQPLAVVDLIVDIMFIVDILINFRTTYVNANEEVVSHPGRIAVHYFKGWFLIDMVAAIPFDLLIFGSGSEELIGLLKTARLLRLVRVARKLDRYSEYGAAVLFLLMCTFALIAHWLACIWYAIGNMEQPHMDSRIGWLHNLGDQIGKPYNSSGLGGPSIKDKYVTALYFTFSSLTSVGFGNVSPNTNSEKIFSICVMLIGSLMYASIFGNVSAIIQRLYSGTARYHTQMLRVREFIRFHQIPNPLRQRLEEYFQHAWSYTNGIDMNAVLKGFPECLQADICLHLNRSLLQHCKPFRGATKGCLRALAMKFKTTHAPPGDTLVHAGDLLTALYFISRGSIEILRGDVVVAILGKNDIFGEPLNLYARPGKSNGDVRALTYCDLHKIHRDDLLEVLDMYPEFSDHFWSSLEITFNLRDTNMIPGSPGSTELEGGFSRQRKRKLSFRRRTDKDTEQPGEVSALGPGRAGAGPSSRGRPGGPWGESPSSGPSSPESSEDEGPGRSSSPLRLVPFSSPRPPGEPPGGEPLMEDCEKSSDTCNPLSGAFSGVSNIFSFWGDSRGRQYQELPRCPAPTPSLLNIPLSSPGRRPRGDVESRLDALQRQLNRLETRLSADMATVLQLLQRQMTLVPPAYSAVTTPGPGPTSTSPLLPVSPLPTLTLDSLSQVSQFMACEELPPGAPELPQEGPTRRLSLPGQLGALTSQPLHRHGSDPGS
Data set [20] relates to Rattus norvegicus. The data set is described as follows: Reduction in alcohol intake in alcohol-preferring rat at 3 mg/kg, sc after 30 mins. The class given is functional. Particulars: 0.5 h, route subcutaneous.
The nature of data set [21]: Inhibition of IC20 for human ERG over plasma efficacious concentration. The class given is functional.
A further data set addresses hERG (KCNH2) (Homo sapiens, UniProt Q12809). Put plainly: Inhibition of human ERG.

CYP2D6, sequence (P10635 whole entry): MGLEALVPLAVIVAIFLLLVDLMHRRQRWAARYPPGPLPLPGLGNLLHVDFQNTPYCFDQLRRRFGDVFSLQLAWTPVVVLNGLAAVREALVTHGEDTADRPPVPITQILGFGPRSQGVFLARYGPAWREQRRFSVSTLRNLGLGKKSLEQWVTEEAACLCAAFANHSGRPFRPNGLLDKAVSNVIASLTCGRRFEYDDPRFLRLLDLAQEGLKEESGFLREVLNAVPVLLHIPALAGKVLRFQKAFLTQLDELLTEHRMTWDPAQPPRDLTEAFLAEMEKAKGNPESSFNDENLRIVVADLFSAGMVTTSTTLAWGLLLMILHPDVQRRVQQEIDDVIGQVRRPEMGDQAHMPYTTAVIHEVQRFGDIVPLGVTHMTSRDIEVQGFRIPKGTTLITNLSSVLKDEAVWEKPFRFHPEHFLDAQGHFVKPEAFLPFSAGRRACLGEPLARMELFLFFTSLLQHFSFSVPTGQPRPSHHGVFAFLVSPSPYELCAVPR
T1 sequence (P35372 whole entry): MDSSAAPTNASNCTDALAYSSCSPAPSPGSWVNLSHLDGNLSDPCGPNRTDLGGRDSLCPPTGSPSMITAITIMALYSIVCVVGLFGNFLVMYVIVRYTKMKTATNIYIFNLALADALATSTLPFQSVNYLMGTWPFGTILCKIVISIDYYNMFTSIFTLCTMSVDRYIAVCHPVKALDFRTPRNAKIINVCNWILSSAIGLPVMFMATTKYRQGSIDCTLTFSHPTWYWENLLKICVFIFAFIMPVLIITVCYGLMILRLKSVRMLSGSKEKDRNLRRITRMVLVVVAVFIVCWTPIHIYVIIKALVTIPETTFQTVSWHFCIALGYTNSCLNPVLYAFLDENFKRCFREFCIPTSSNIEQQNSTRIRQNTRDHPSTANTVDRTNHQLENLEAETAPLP
hERG (KCNH2), sequence (Q12809 whole entry): as the sequence (Q12809 whole entry) above

Consider `CC[C@]1(c2cccc(NS(C)(=O)=O)c2)[C@@H]2CN(CC3(O)Cc4ccccc4C3)C[C@@H]21` [CP-866087], for which the Ki (usually the dissociation constant of the complex between target and ligand, obtained from inhibition or displacement) came to 170 nM in data set [1], 0.28 nM at Mu-type opioid receptor [6], 1 nM at Mu-type opioid receptor [7] and 42 nM in [8]. For the same molecule, the CLint scaled in data set [2] came to 12 mL/min/kg. Besides, the Kp at 0.75 h in data set [3] is 2. For the same molecule, the inhibition (as a rule, the percentage by which the read-out fell short of the control) with Rattus norvegicus [4] was “Dose-dependent effect”. In the data set with Rattus norvegicus [5], the inhibition in vivo (in general, how much of the control response was suppressed) at 5.6 mg/kg was determined as 42%. In addition, the clearance (in general, a measure of how efficiently the substance is removed, as volume per time) in [9] was found to be 120 mL/min/kg. This molecule returned an inhibition in vivo at 1 mg/kg in the data set with Rattus norvegicus [10] of 23%. Moreover, the Vd – broadly, the apparent volume that relates the amount in the body to the concentration in plasma or blood – in data set [11] amounted to 21.7 L/kg. Moreover, the half-life – broadly, how long it takes for the measured level to halve – in data set [12] is 11 h. Besides, the concentration at 0.75 h in [13] amounted to 11.9 nM; in data set [15], 338 nM. Also, in [14], the fraction unbound (in general, the share of the substance not bound to proteins or other matrix) at 0.75 h was determined as 0.034. Moreover, the inhibition at 8 min, 3 µM on CYP2D6 is 6%. Further, in the data set with Rattus norvegicus [16], the ED50 (in general, the dose that gives a 50% effect, or the effect in half of the subjects) is 0.1 mg/kg.

On to `CC[C@]1(c2cccc(C(N)=O)c2)[C@@H]2CN(CC3(O)Cc4ccccc4C3)C[C@@H]21`, for which the Ratio Ki in the data set listed under Homo sapiens [17] was 31; in the data set listed under Homo sapiens [18] it was 17. For the same molecule, the Ki in data set [1] was found to be 108 nM; on Mu-type opioid receptor [6], 0.16 nM; on Mu-type opioid receptor [7], 3.5 nM; in data set [8] it was 60 nM. For the same molecule, in data set [2], the CLint scaled worked out at 11 mL/min/kg. The efflux ratio (commonly a quotient of directional permeabilities that is used to spot active efflux) in the data set on human MDR1 (P-gp) amounted to 2.9. Further, the IC50 (usually the concentration that gives 50% inhibition) in data set [19] came out at 2200 nM. On CYP2D6, this molecule gave an inhibition at 8 min, 3 µM of 17%.

The molecule `O=C1CC[C@@]2(O)[C@H]3Cc4ccc(O)c5c4[C@@]2(CCN3CC2CC2)[C@H]1O5` [NALTREXONE] had an inhibition in vivo at 3 mg/kg with Rattus norvegicus [20] of 21%.

On to `CC[C@]1(c2cccc(NS(C)(=O)=O)c2)[C@@H]2CN(CC3Cc4ccccc4C3)C[C@@H]21`, for which the CLint scaled in [2] is 19 mL/min/kg. Moreover, the efflux ratio in the data set on human MDR1 (P-gp) was determined as 3.5. The IC50 in [19] is 326 nM. This molecule displayed an inhibition at 8 min, 3 µM against CYP2D6 of 35%.

Regarding `CC[C@]1(c2cccc(NS(C)(=O)=O)c2)[C@@H]2CN(CCCC3(O)CCCCC3)C[C@@H]21`, the Ratio in data set [21] is recorded as 15. In addition, the Ratio Ki in the data set listed under Homo sapiens [17] is 83; in the data set listed under Homo sapiens [18], 8. Besides, the Ki in data set [1] is 166 nM; at Mu-type opioid receptor [6] it was 0.18 nM; on Mu-type opioid receptor [7], 2 nM; in [8], 16 nM. In addition, the CLint scaled in data set [2] was determined as 9 mL/min/kg. Further, in the data set on human MDR1 (P-gp), the efflux ratio amounted to 6.5. The IC20 (in general, the concentration at which the effect reaches the 20% level) on hERG (KCNH2) amounted to 320 nM. In data set [19], this molecule had an IC50 of 710 nM. In addition, on CYP2D6, the inhibition at 8 min, 3 µM came out at 14%. The 50% effective dose (ED50) in the data set on Rattus norvegicus [16] came out at 0.63 mg/kg.
